Assay results as given in the NIST ThermoML archive (doi:10.1016/j.jct.2012.11.020).

How the values were obtained:
[1] = 100 kPa, Liquid; for viscosity: Cone and plate viscometry; for mass density: Vibrating tube method; for electrical conductivity: Alternating current cell with electrodes
[2] = xn = mol fraction of the nth substance listed; settings: 100 kPa, Liquid, x2 = 0; for viscosity: Cone and plate viscometry; for mass density: Vibrating tube method

CC1COC(=O)O1 (configuration not stated) [4-methyl-1,3-dioxolan-2-one]
[1]
Settings | mass density [kg/m3] | viscosity [mPa·s]
283.15 K | 1216.3 | 4.25
293.15 K | 1205.2 | 2.96
303.15 K | 1194.5 | 2.2
313.15 K | 1183.9 | 1.8
323.15 K | 1173.4 | 1.56
333.15 K | 1162.9 | 1.4
343.15 K | 1152.3 | 1.26
353.15 K | 1141.6 | 1.15

CC1COC(=O)O1 (configuration not stated) [4-methyl-1,3-dioxolan-2-one] + C1CC[NH2+]C1.O=[N+]([O-])[O-]
[2]
Settings | mass density [kg/m3] | viscosity [mPa·s]
283.15 K | 1216.3 | 4.25
293.15 K | 1205.2 | 2.96
303.15 K | 1194.5 | 2.2
313.15 K | 1183.9 | 1.8
323.15 K | 1173.4 | 1.56
333.15 K | 1162.9 | 1.4
343.15 K | 1152.3 | 1.26
353.15 K | 1141.6 | 1.15

C1CC[NH2+]C1.O=[N+]([O-])[O-] [pyrrolidinium nitrate]
[1]
Settings | electrical conductivity [S/m] | mass density [kg/m3] | viscosity [mPa·s]
283.15 K | – | 1235 | 58.87
284.15 K | 2.93 | – | –
293.15 K | 3.71 | 1228 | 40.29
298.15 K | 4.22 | – | –
303.15 K | – | 1220.4 | 28.81
304.15 K | 4.94 | – | –
313.15 K | 5.97 | 1213.1 | 20.91
323.15 K | 7.17 | 1205.5 | 16.7
333.15 K | 8.51 | 1197.2 | 13.3
343.15 K | – | 1190.2 | 11.17
344.95 K | 9.3 | – | –
353.15 K | – | 1182 | 9.28
353.65 K | 10.5 | – | –
